# Reference: patent US10710980B2, “Aminopyridine derivatives and their use as selective ALK-2 inhibitors” (priority 2016, dated 2020)
# Tests used:
# [1] = target: T1, wild-type ALK2 (aa172-499) (Homo sapiens (Human), UniProt Q04771); assay: ADPGlo biochemical autophosphorylation assay, ALK2; details: 15 μm ATP, 60 min at 32° C.
# ALK3 (aa198-525) = ALK3 (aa198-525) (Homo sapiens (Human), UniProt P36894); assay: ADPGlo biochemical autophosphorylation assay, ALK3; details: 15 μm ATP, 60 min at 32° C.
# Sequence of ALK3 (aa198-525) (P36894 198-525): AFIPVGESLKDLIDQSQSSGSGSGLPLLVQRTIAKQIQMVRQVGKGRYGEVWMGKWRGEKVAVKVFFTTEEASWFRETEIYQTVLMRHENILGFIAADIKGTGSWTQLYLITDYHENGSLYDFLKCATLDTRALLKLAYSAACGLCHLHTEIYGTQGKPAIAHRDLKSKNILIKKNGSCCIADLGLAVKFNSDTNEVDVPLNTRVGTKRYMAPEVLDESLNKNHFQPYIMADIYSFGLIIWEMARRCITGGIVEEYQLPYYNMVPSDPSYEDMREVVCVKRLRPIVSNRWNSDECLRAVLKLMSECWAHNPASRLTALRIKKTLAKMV
# [2] = target: T1, wild-type ALK2 (aa172-499); assay: Caliper biochemical peptide phosphorylation assay, ALK2; details: 15 μm ATP, 60 min at 30° C.; read-out: ALK2 EPK (IC50)
# ALK1 (aa166-493) = ALK1 (aa166-493) (Homo sapiens (Human), UniProt P37023); assay: Caliper biochemical peptide phosphorylation assay, ALK1; details: 15 μm ATP, 60 min at 30° C.; read-out: ALK1 EPK (IC50)
# Sequence of ALK1 (aa166-493) (P37023 166-493): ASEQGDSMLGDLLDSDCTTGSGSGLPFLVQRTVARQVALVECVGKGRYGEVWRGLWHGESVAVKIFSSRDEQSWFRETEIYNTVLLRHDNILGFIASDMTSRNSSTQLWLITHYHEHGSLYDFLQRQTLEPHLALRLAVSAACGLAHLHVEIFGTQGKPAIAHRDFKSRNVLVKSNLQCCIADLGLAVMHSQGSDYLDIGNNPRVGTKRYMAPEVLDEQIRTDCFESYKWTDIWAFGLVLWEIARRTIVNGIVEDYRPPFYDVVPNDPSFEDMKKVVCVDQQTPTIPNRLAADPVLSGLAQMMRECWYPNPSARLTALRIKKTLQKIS
# ALK5 (aa162-503) = ALK5 (aa162-503) (Homo sapiens (Human), UniProt P36897); assay: Caliper biochemical peptide phosphorylation assay, ALK5; details: 15 μm ATP, 60 min at 30° C.; read-out: ALK5 EPK (IC50)
# Sequence of ALK5 (aa162-503) (P36897 162-503): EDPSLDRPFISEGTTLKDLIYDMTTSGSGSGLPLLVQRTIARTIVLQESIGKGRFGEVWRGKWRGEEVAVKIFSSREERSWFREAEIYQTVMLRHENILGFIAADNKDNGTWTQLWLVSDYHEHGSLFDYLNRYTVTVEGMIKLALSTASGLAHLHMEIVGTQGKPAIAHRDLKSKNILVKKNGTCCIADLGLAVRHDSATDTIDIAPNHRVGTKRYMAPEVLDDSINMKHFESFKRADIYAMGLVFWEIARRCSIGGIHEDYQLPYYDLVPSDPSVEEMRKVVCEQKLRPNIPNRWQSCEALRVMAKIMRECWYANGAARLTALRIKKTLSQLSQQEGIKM
# ALK6 (aa168-495) = ALK6 (aa168-495) (Homo sapiens (Human), UniProt O00238); assay: Caliper biochemical peptide phosphorylation assay, ALK6; details: 15 μm ATP, 60 min at 30° C.; read-out: ALK6 EPK (IC50)
# Sequence of ALK6 (aa168-495) (O00238 168-495): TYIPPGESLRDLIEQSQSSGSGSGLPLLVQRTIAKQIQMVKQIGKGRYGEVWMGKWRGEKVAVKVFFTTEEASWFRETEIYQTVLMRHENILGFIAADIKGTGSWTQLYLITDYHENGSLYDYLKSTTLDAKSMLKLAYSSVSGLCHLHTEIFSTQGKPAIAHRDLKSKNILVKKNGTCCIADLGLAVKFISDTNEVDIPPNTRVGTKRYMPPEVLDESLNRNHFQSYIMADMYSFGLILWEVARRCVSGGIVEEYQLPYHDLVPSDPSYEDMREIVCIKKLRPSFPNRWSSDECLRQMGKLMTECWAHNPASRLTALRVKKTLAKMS
# [3] = test system: BMP response element (BRE) luciferase reporter in HuH7 cells, BMP6 stimulated; assay: BMP signaling reporter gene assay; type: cell-based; details: Homo sapiens, Huh-7; HuH7 BRE-luciferase, BMP6 100 ng/ml, 5 hours; read-out: MSD BMP RGA IC50
# T1 sequence (Q04771 172-499): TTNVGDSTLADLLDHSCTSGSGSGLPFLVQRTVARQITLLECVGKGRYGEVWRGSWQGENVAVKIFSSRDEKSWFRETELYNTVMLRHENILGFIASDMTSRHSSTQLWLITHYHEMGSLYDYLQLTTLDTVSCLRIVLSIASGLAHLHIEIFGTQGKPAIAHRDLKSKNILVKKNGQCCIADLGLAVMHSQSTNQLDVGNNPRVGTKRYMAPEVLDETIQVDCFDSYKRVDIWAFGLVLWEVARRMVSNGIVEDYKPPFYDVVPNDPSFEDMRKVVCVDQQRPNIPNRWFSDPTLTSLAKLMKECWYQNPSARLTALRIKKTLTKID
IC50 [1] [nM],IC50 (ALK3 (aa198-525)) [nM],IC50 [2] [nM],IC50 (ALK1 (aa166-493)) [nM],IC50 (ALK5 (aa162-503)) [nM],IC50 (ALK6 (aa168-495)) [nM],IC50 [3] [nM],Compound
32,995,29,410,3900,2850,75,"Nc1ncc(-c2ccc([C@]34C[C@H]3CN(CCN3CCOCC3)C4)cc2)cc1C(=O)NC12CCC(O)(CC1)CC2 [Example 40, 2-amino-N-(4-hydroxybicyclo[2.2.2]octan-1-yl)-5-(4-((1S,5R)-3-(2-morpholinoethyl)-3-azabicyclo[3.1.0]hexan-1-yl)phenyl)nicotinamide]"
19,1800,23,310,6700,6900,158,"Nc1ncc(-c2ccc([C@@]34C[C@@H]3CN(CCOCC(F)(F)F)C4)cc2)cc1C(=O)N[C@H]1CC[C@H](O)CC1 [Example 41, 2-amino-N-((1r,4R)-4-hydroxycyclohexyl)-5-(4-((1R,5S)-3-(2-(2,2,2-trifluoroethoxy)ethyl)-3-azabicyclo[3.1.0]hexan-1-yl)phenyl)nicotinamide]"
26,1300,29,540,4770,4100,235,"Nc1ncc(-c2ccc([C@]34C[C@H]3CN(C3CCOCC3)C4)cc2)cc1C(=O)NC12CCC(O)(CC1)CC2 [Example 42, 2-amino-N-(4-hydroxybicyclo[2.2.2]octan-1-yl)-5-(4-((1S,5R)-3-(tetrahydro-2H-pyran-4-yl)-3-azabicyclo[3.1.0]hexan-1-yl)phenyl)nicotinamide]"
31,2350,25,765,3500,11000,130,"Nc1ncc(-c2ccc(OCCCN3CCCCC3)cc2)cc1C(=O)NC1CCCCC1 [Example 43, 2-amino-N-cyclohexyl-5-(4-(3-(piperidin-1-yl)propoxy)phenyl)nicotinamide]"
18,430,24,170,3200,2000,365,"Nc1ncc(-c2ccc([C@@]34C[C@@H]3CN(C3CCS(=O)(=O)CC3)C4)cc2)cc1C(=O)N[C@H]1CC[C@H](O)CC1 [Example 44, 2-amino-5-(4-((1R,5S)-3-(1,1-dioxidotetrahydro-2H-thiopyran-4-yl)-3-azabicyclo[3.1.0]hexan-1-yl)phenyl)-N-((1r,4R)-4-hydroxycyclohexyl)nicotinamide]"
20,1600,25,750,2700,4800,365,"CN1CCN(C(=O)c2ccc(-c3cnc(N)c(C(=O)NC4CCCCC4)c3)cc2)CC1 [Example 45, 2-amino-N-cyclohexyl-5-(4-(4-methylpiperazine-1-carbonyl)phenyl)nicotinamide]"
21,1300,25,290,4700,3500,130,"Nc1ncc(-c2ccc([C@@]34C[C@@H]3CN(CCC(F)(F)F)C4)cc2)cc1C(=O)N[C@H]1CC[C@H](O)CC1 [Example 47, 2-amino-N-((1r,4R)-4-hydroxycyclohexyl)-5-(4-((1R,5S)-3-(3,3,3-trifluoropropyl)-3-azabicyclo[3.1.0]hexan-1-yl)phenyl)nicotinamide]"
8,970,34,120,5300,4400,360,"Nc1ncc(-c2ccc([C@@]34C[C@@H]3CN(CCF)C4)cc2)cc1C(=O)N[C@H]1CC[C@H](O)CC1 [Example 48, 2-amino-5-(4-((1R,5S)-3-(2-fluoroethyl)-3-azabicyclo[3.1.0]hexan-1-yl)phenyl)-N-((1r,4R)-4-hydroxycyclohexyl)nicotinamide]"
11,2400,37,500,6400,5100,825,"CC(F)(F)CN1C[C@H]2C[C@@]2(c2ccc(-c3cnc(N)c(C(=O)N[C@H]4CC[C@H](O)CC4)c3)cc2)C1 [Example 50, 2-amino-5-(4-((1R,5S)-3-(2,2-difluoropropyl)-3-azabicyclo[3.1.0]hexan-1-yl)phenyl)-N-((1r,4R)-4-hydroxycyclohexyl)nicotinamide]"
16,780,31,120,1400,1700,64,"N#CCCN1C[C@@H]2C[C@]2(c2ccc(-c3cnc(N)c(C(=O)N[C@H]4CC[C@H](O)CC4)c3)cc2)C1 [Example 51, 2-amino-5-(4-((1S,5R)-3-(2-cyanoethyl)-3-azabicyclo[3.1.0]hexan-1-yl)phenyl)-N-((1r,4S)-4-hydroxycyclohexyl)nicotinamide]"
67,2800,31,970,8600,20200,340,"Nc1ncc(-c2ccc(OCCCN3CCOCC3)cc2)cc1C(=O)NC1CCCCC1 [Example 52, 2-amino-N-cyclohexyl-5-(4-(3-morpholinopropoxy)phenyl)nicotinamide]"
13,1200,32,190,2000,2500,50,"C#CCN1C[C@@H]2C[C@]2(c2ccc(-c3cnc(N)c(C(=O)N[C@H]4CC[C@H](O)CC4)c3)cc2)C1 [Example 53, 2-amino-N-((1r,4S)-4-hydroxycyclohexyl)-5-(4-((1S,5R)-3-(prop-2-yn-1-yl)-3-azabicyclo[3.1.0]hexan-1-yl)phenyl)nicotinamide]"
11,920,33,140,5300,3500,395,"C#CCN1C[C@H]2C[C@@]2(c2ccc(-c3cnc(N)c(C(=O)N[C@H]4CC[C@H](O)CC4)c3)cc2)C1 [Example 54, 2-amino-N-((1r,4R)-4-hydroxycyclohexyl)-5-(4-((1R,5S)-3-(prop-2-yn-1-yl)-3-azabicyclo[3.1.0]hexan-1-yl)phenyl)nicotinamide]"
22,2440,30,627,5030,2900,543,"C[C@H](c1ccc(-c2cnc(N)c(C(=O)N[C@H]3CC[C@H](O)CC3)c2)c(Cl)c1)N1CC2(COC2)C1 [Example 55, 5-(4-((R)-1-(2-oxa-6-azaspiro[3.3]heptan-6-yl)ethyl)-2-chlorophenyl)-2-amino-N-((1r,4R)-4-hydroxycyclohexyl)nicotinamide]"
28,9900,30,930,5800,10000,285,"C[C@@H]1CCCN1Cc1ccc(-c2cnc(N)c(C(=O)N[C@H]3CC[C@](C)(O)CC3)c2)c(F)c1 [Example 56, 2-amino-5-(2-fluoro-4-(((R)-2-methylpyrrolidin-1-yl)methyl)phenyl)-N-((1r,4R)-4-hydroxy-4-methylcyclohexyl)nicotinamide]"
25,3720,32,663,7550,8400,143,"C[C@]1(O)CC[C@H](NC(=O)c2cc(-c3ccc([C@]45C[C@H]4CN(C4CCC(F)(F)CC4)C5)cc3)cnc2N)CC1 [Example 58, 2-amino-5-(4-((1S,5R)-3-(4,4-difluorocyclohexyl)-3-azabicyclo[3.1.0]hexan-1-yl)phenyl)-N-((1r,4S)-4-hydroxy-4-methylcyclohexyl)nicotinamide]"
24,2700,33,770,9100,7700,405,"C[C@H](c1ccc(-c2cnc(N)c(C(=O)N[C@H]3CC[C@](C)(O)CC3)c2)cc1)N1CC2(COC2)C1 [Example 59, 5-(4-((R)-1-(2-oxa-6-azaspiro[3.3]heptan-6-yl)ethyl)phenyl)-2-amino-N-((1r,4R)-4-hydroxy-4-methylcyclohexyl)nicotinamide]"
11,990,42,170,6300,6300,84,"CC#CCN1C[C@H]2C[C@@]2(c2ccc(-c3cnc(N)c(C(=O)N[C@H]4CC[C@H](O)CC4)c3)cc2)C1 [Example 60, 2-amino-5-(4-((1R,5S)-3-(but-2-yn-1-yl)-3-azabicyclo[3.1.0]hexan-1-yl)phenyl)-N-((1r,4R)-4-hydroxycyclohexyl)nicotinamide]"
43,2100,35,940,7200,20200,2300,"Nc1ncc(-c2ccc(N3CCCCC3)cc2)cc1C(=O)NC1CCCCC1 [Example 61, 2-amino-N-cyclohexyl-5-(4-(piperidin-1-yl)phenyl)nicotinamide]"
